Source: ChEMBL document CHEMBL2203227, “Macrocycles are great cycles: applications, opportunities, and challenges of synthetic macrocycles in drug discovery” (J Med Chem, 2011)
*1 amine or outer side, *2 acyl side, *3 side chain or, on linkers, in order; H or OH if unused. Where a SMILES comes first, the peptide text is derived from it. [ ]: non-standard residue; d: D form. LeuΨ(S-CHOHCH2)Ala = CC(C)C[C@H](N[*:1])[C@@H](O)C[C@@H](C)C(=O)[*:2]

Columns and labels:
[1] = Selectivity ratio of human elastase to HCV NS3 protease
[2] = target: High affinity choline transporter 1 (Homo sapiens, UniProt Q9GZV3); experiment: Antagonist activity at CHT1; type: functional
[3] = Antagonist activity at GABA-gated chloride channel; type: functional
Adenosine receptor A3 = Adenosine receptor A3 (Homo sapiens, UniProt P0DMS8); experiment: Antagonist activity at adenosine A3 receptor; type: functional
D(1A) dopamine receptor = D(1A) dopamine receptor (Homo sapiens, UniProt P21728); experiment: Antagonist activity at dopamine D1 receptor; type: functional
[4] = Half life in rat; type: ADME, organism-based; conditions: in vivo
[5] = Half life in dog; type: ADME, organism-based, Canis lupus familiaris; conditions: in vivo
[6] = Oral bioavailability in dog; type: ADME, organism-based, Canis lupus familiaris; conditions: in vivo
[7] = Inhibition of HCV 1a NS3 protease; set-up: species or system Hepatitis C virus subtype 1a
in vivo [8] = conditions: rat
in vivo [9] = conditions: rat, liver/plasma
Description: Ratio of drug level in liver to plasma of rat

Hepatitis C virus [10] = experiment: microbe, parasite or virus in culture; conditions: genotype 1b
Description: Antiviral activity against HCV1b by cell based replicon assay

Hepatitis C virus [11] = experiment: microbe, parasite or virus in culture; conditions: subtype 1a
Description: Antiviral activity against HCV1a by cell based replicon assay

[12] = target: T1, Growth factor receptor-bound protein 2 (Homo sapiens, UniProt P62993); experiment: Inhibition of SH2 domain of GRB2 in human MDA-MB-453 cells; type: cell-based
[13] = target: T1, Growth factor receptor-bound protein 2; experiment: Inhibition of SH2 domain of GRB2 in human MDA-MB-231 cells; type: cell-based
[14] = target: T1, Growth factor receptor-bound protein 2; experiment: Inhibition of SH2 domain of GRB2 by whole cell based assay
[15] = target: T2, Growth hormone secretagogue receptor type 1 (Homo sapiens, UniProt Q92847); experiment: Agonist activity at ghrelin receptor by cell based assay; type: functional
[16] = target: T2, Growth hormone secretagogue receptor type 1; experiment: Agonist activity at ghrelin receptor; type: functional
MCF7 = experiment: cells; conditions: Homo sapiens
Description: Antiproliferative activity against human MCF7 cells

[17] = target: High affinity nerve growth factor receptor (Homo sapiens, UniProt P04629); experiment: Inhibition of TrkA assessed as inhibition of mAb5C3 binding
Beta-secretase 1 [18] = target: T3, Beta-secretase 1 (Homo sapiens, UniProt P56817); experiment: Inhibition of BACE1 by cell based assay
[19] = target: C-X-C chemokine receptor type 4 (Homo sapiens, UniProt P61073); experiment: Antagonist activity at CXCR4; type: functional
[20] = Inhibition of HCV 3a NS3 protease; set-up: species or system Hepatitis C virus subtype 3a
Hepatitis C virus [21] = experiment: Inhibition of HCV 1b NS3 protease; set-up: species or system Hepatitis C virus subtype 1b
Hepatitis C virus [22] = experiment: microbe, parasite or virus in culture
Description: Antiviral activity against HCV by cell based replicon assay

[23] = Reversible inhibition of HCV NS3 protease; set-up: species or system Hepacivirus hominis
Beta-secretase 1 [24] = target: T3, Beta-secretase 1; experiment: Inhibition of BACE1
[25] = Oral bioavailability in rhesus monkey; type: ADME, organism-based, Macaca mulatta; conditions: in vivo
Renin = target: T4, Renin (Homo sapiens, UniProt P00797); experiment: Inhibition of renin
T4 sequence (P00797 whole entry): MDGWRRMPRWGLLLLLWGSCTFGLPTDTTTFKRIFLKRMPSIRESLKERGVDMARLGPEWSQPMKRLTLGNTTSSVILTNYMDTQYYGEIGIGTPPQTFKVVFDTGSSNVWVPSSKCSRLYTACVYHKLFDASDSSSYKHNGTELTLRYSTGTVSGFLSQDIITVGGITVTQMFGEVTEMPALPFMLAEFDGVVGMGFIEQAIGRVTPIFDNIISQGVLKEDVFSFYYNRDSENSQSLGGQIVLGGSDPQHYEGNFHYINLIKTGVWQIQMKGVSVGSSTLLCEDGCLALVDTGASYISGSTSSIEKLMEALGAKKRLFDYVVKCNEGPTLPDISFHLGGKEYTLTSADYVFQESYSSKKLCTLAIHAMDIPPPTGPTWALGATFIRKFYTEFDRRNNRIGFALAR

[26] = target: Cyclin-dependent kinase 1 (Homo sapiens, UniProt P06493); experiment: Inhibition of CDK1
[27] = target: Cyclin-dependent kinase 2 (Homo sapiens, UniProt P24941); experiment: Inhibition of CDK2
[28] = Ratio of drug level in liver to plasma of monkey; type: ADME, tissue-based, Macaca mulatta; conditions: rhesus monkey
[29] = Inhibition of HCV6 NS3 protease; set-up: species or system Hepatitis C virus genotype 6
[30] = Inhibition of HCV4 NS3 protease; set-up: species or system Hepatitis C virus genotype 4
[31] = Inhibition of HCV5 NS3 protease; set-up: species or system Hepatitis C virus genotype 5
[32] = Inhibition of HCV 2b NS3 protease; set-up: species or system Hepatitis C virus subtype 2b
[33] = Protein binding in human plasma; type: ADME, cell-free; conditions: read-out: PPB (converted)
[34] = Half life in monkey; type: ADME, organism-based, Macaca mulatta; conditions: rhesus monkey, in vivo
[35] = Oral bioavailability in monkey; type: ADME, organism-based, Macaca mulatta; conditions: rhesus monkey, in vivo
[36] = Oral bioavailability in rat; type: ADME, organism-based; conditions: in vivo
[37] = target: T2, Growth hormone secretagogue receptor type 1; experiment: Antagonist activity at ghrelin receptor assessed as inhibition of ghrelin-induced Ca2+ release by cell based assay; type: functional

T3 sequence (P56817 whole entry): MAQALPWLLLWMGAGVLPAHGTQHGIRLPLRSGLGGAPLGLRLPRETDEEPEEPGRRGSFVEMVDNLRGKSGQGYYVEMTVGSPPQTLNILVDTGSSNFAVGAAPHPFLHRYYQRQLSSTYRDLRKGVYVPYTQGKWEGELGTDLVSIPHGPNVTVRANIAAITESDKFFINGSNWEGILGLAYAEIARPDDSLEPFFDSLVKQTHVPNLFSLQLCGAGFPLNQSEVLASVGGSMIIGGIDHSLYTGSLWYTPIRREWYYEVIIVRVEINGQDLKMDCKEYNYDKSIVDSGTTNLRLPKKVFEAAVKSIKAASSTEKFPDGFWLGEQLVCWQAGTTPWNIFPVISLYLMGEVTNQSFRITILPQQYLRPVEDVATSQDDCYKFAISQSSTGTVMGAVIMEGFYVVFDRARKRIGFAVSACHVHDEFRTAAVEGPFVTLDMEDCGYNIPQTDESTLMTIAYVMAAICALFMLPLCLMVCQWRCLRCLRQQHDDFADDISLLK
T1 sequence (P62993 whole entry, the tested form may be a part): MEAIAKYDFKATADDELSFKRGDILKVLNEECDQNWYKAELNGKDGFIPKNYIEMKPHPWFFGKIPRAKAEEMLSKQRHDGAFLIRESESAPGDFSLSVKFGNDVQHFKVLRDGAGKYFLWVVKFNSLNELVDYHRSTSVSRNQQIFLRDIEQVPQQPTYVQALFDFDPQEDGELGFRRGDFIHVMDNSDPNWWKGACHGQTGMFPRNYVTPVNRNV
T2 sequence (Q92847 whole entry): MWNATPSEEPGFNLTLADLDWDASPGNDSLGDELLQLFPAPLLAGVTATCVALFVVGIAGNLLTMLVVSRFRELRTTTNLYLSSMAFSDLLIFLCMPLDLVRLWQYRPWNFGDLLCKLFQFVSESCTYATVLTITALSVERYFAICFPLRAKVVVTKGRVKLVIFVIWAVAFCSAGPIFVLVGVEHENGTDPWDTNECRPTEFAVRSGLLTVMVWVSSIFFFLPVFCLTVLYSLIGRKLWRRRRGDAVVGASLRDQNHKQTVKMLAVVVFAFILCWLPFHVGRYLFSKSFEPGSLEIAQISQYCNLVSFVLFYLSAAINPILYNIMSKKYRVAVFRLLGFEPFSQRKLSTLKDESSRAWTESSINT
Sequence of Cyclin-dependent kinase 1 (P06493 whole entry): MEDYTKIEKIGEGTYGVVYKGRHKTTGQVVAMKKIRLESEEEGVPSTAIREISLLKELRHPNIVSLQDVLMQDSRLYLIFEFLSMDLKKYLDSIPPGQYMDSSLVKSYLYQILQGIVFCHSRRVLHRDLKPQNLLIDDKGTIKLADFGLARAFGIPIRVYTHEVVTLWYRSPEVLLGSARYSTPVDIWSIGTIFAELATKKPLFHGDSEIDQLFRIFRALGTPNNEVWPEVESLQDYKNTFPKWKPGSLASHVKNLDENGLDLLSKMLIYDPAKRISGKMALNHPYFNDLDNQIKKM
Sequence of C-X-C chemokine receptor type 4 (P61073 whole entry): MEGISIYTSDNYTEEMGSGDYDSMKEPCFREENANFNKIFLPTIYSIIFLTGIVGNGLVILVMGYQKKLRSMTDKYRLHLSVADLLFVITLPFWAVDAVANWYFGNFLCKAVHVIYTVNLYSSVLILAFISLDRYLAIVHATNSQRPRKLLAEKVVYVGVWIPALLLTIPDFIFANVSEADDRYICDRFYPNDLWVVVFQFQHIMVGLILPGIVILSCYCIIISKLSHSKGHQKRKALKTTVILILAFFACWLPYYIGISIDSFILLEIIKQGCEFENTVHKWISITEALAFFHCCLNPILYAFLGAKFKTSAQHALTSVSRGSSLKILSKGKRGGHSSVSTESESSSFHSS
Sequence of High affinity nerve growth factor receptor (P04629 whole entry): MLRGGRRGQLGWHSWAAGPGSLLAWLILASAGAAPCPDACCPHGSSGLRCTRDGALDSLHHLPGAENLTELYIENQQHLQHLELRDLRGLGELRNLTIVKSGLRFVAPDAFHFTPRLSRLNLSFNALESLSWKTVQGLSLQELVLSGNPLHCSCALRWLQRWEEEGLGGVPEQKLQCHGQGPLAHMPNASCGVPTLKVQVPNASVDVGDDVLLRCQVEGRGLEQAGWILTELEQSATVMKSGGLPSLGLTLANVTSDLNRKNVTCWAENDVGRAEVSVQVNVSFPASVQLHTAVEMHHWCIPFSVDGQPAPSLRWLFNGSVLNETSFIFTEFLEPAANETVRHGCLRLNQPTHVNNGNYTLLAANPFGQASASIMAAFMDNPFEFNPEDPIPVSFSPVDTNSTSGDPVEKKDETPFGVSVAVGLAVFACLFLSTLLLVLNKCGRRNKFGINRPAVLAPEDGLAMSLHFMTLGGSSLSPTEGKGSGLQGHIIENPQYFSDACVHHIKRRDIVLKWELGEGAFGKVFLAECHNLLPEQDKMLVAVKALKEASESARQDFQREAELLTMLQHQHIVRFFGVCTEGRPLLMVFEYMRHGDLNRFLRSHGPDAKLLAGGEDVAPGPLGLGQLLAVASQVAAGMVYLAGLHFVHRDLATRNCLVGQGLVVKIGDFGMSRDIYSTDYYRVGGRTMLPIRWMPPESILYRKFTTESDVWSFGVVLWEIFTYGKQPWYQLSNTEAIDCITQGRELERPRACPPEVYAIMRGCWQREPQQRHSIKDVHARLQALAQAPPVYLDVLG
Sequence of D(1A) dopamine receptor (P21728 whole entry): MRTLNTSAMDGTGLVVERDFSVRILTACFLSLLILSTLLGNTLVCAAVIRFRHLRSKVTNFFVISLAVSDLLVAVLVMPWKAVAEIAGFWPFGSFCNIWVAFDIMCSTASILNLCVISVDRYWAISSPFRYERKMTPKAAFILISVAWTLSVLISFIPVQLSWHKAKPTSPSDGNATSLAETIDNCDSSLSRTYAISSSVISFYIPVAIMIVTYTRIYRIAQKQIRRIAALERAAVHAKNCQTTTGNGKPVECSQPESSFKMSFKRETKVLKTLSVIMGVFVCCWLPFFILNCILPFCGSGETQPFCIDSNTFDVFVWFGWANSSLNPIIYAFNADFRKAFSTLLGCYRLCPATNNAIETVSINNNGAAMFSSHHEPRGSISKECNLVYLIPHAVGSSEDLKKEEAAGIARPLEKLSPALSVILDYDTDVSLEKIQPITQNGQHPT
Sequence of High affinity choline transporter 1 (Q9GZV3 whole entry): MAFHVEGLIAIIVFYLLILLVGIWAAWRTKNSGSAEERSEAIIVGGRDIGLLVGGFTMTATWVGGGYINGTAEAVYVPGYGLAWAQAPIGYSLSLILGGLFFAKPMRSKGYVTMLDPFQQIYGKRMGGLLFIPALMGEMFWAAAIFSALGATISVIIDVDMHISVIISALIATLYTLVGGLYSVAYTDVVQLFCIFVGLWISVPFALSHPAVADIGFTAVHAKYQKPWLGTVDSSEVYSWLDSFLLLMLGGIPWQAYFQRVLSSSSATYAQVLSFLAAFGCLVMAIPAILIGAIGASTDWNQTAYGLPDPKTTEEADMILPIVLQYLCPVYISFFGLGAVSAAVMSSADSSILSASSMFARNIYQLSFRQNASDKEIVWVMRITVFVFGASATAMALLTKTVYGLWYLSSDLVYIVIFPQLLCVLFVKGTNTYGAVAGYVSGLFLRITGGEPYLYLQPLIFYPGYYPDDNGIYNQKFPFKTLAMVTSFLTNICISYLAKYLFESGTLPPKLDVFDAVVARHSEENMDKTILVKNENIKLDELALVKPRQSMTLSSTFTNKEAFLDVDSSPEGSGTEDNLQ
Sequence of Adenosine receptor A3 (P0DMS8 whole entry): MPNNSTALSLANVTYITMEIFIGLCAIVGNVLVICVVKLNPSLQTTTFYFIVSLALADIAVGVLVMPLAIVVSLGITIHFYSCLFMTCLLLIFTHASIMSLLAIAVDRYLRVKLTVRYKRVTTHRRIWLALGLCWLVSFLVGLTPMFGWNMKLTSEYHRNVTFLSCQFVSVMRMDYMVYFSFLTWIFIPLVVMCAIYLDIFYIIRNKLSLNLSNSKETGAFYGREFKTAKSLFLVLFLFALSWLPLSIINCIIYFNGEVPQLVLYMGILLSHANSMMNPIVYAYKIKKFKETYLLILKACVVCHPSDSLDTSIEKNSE

SMILES: CC(C)(C)NC(=O)N[C@H](C(=O)N1C[C@H]2[C@@H]([C@H]1C(=O)NC(CC1CCC1)C(=O)C(N)=O)C2(C)C)C(C)(C)C (stereo not given in full)
- Selectivity ratio [1]: 2800

SMILES: Cn1c2cnc1OCC/C=C\CCCCOc1ccccc1-2
- IC50 [2]: 3200 nM
- IC50 [3]: 7200 nM
- IC50 (Adenosine receptor A3): 850 nM
- IC50 (D(1A) dopamine receptor): 1100 nM

SMILES: COc1ccc2c(O[C@@H]3C[C@H]4C(=O)N[C@]5(C(=O)NS(=O)(=O)C6CC6)C[C@H]5/C=C\CCCCN(C)C(=O)[C@@H]4C3)cc(-c3nc(C(C)C)cs3)nc2c1C
- half-life [4]: 4 h
- half-life [5]: 5.1 h
- bioavailability [6]: 100%
- Ki [7]: 0.5 nM
- clearance (in vivo [8]): 38 mL/min/kg
- Kp (in vivo [9]): > 35
- EC50 (Hepatitis C virus [10]): 25 nM
- EC50 (Hepatitis C virus [11]): 28 nM

SMILES: Cc1ccc2c(ccn2C[C@@H]2C/C=C/[C@H](c3ccc(CP(=O)(O)O)cc3)[C@H](CC(=O)O)C(=O)NC3(CCCCC3)C(=O)N[C@@H](CC(N)=O)C(=O)NC2)c1
- IC50 [12]: 630 nM
- IC50 [13]: > 10000 nM
- IC50 [14]: ≤ 10 nM

SMILES: CC[C@H](C)[C@@H]1NCCOc2ccccc2CCCNC(=O)[C@@H](Cc2ccc(Cl)cc2)NC(=O)[C@@H](C)N(C)C1=O
- EC50 [15]: 14 nM
- Ki [16]: 1 nM

SMILES: O=S1(=O)NCCCNc2nc(ncc2Br)Nc2cccc1c2
- IC50 (MCF7): 200 nM

SMILES: NCCCC[C@@H]1NC(=O)c2cc([N+](=O)[O-])ccc2NCc2ccc(C(N)=O)cc2NC(=O)[C@H](CO)NC1=O
- IC50 [17]: 4000 nM

SMILES: CC(C)[C@H](NC(=O)OC(C)(C)C)C(=O)N[C@@H](C)C(=O)N[C@@H](Cc1ccccc1)[C@@H](O)C[C@@H](C)C(=O)N[C@H](C(=O)NCc1ccncc1)C(C)C
- IC50 (Beta-secretase 1 [18]): 2100 nM

SMILES: c1ccc(CNCc2ccc(CN3CCCNCCNCCCNCC3)cc2)nc1
- IC50 [19]: 12.4 nM

SMILES: COc1cc2nc(-c3ccccc3)cc3c2cc1/C=C/CC(C)(C)COC(=O)N[C@H]1CCCCC/C=C\[C@@H]2C[C@@]2(C(=O)NS(=O)(=O)C2CC2)NC(=O)[C@@H]2C[C@H](CN2C1=O)O3
- Ki [20]: 1.2 nM
- Ki (Hepatitis C virus [21]): 0.029 nM
- EC50 (Hepatitis C virus [22]): 2 nM

SMILES: CN(C)C(=O)[C@@H](NC(=O)CNC(=O)C(=O)[C@@H]1CCCCCCCCCC[C@H](NC(=O)NC(C)(C)C)C(=O)N2C[C@H]3[C@@H]([C@H]2C(=O)N1)C3(C)C)c1ccccc1
- Ki [23]: 6 nM

SMILES: CC(C)C[C@H](NC(=O)[C@H](CC(N)=O)NC(=O)[C@H](C)NC(=O)[C@@H](N)CCC(=O)O)[C@@H](O)C[C@@H](C)C(=O)N[C@@H](C)C(=O)N[C@@H](CCC(=O)O)C(=O)N[C@@H](Cc1ccccc1)C(=O)O (H-EAN[LeuΨ(S-CHOHCH2)Ala]AEF-OH)
- IC50 (Beta-secretase 1 [24]): 1.6 nM

SMILES: O=C1CCC[C@H](CN2CCOCC2)OC(=O)[C@H](O)[C@H](CC2CCCCC2)NC(=O)[C@@H](NC(=O)[C@H](Cc2ccccc2)N[C@@H]2CN3CCC2CC3)CO1
- bioavailability [25]: 1%
- IC50 (Renin): 1.3 nM

SMILES: CCCN(c1cc(COC(=O)[C@](C)(N)Cc2ccccc2)cc(C(=O)N[C@H](C)c2ccc(F)cc2)c1)S(C)(=O)=O
- IC50 (Beta-secretase 1 [24]): 27 nM

SMILES: CCC[C@H](NC(=O)[C@@H]1[C@H]2CCC[C@H]2CN1C(=O)[C@@H](NC(=O)[C@@H](NC(=O)c1cnccn1)C1CCCCC1)C(C)(C)C)C(=O)C(=O)NC1CC1
- Ki [23]: 7 nM
- IC50 (Hepatitis C virus [22]): 354 nM

SMILES: N#CCNc1nc(Nc2ccccc2)ncc1Br
- IC50 [26]: 100 nM
- IC50 [27]: 100 nM
- IC50 (MCF7): 4000 nM

SMILES: CC(C)(C)OC(=O)N[C@H]1CCCCC/C=C\[C@@H]2C[C@@]2(C(=O)NS(=O)(=O)C2CC2)NC(=O)[C@@H]2C[C@@H](OC(=O)N3Cc4cccc(F)c4C3)CN2C1=O [DANOPREVIR]
- Kp [28]: 100
- IC50 [29]: 0.2 nM
- IC50 [30]: 0.2 nM
- IC50 [31]: 0.2 nM
- IC50 [32]: 0.2 nM
- IC50 [20]: 0.2 nM
- IC50 [7]: 0.2 nM
- IC50 (Hepatitis C virus [21]; Hepatitis C virus): 0.2 nM
- Kp (in vivo [9]): 10
- EC50 (Hepatitis C virus [22]): 1.8 nM

SMILES: COc1ccc2c(O[C@@H]3C[C@H]4C(=O)N[C@]5(C(=O)O)C[C@H]5/C=C\CCCCC[C@H](NC(=O)OC5CCCC5)C(=O)N4C3)cc(-c3csc(NC(C)C)n3)nc2c1
- fraction unbound [33]: 0.009
- half-life [34]: 7 h
- half-life [4]: 0.8 h
- half-life [5]: 4.2 h
- bioavailability [35]: 7%
- bioavailability [6]: 36%
- bioavailability [36]: 13%
- Ki [7]: 0.3 nM

SMILES: CC[C@H](C)[C@@H]1NCCOc2ccccc2CCCNC(=O)[C@@H](Cc2ccccc2)NC(=O)[C@H](CO)N(C)C1=O
- IC50 [37]: 500 nM
- Ki [16]: 100 nM
